The results in this text go back to US20240424113A1, “CONJUGATES COMPRISING ANTIFUNGALS AND HEAT SHOCK PROTEIN 90 (HSP90) INHIBITORS AND METHODS OF USE THEREOF” (Bright Angel Therapeutics Inc., priority 2021, published 2024).

One data set has as its system CaCl2. The data set can be described thus: Antifungal sensitivity testing (broth microdilution MIC). The class given is cell-based. The note with it: 96-well broth microdilution. The gist of the method:
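Broth microdilution MIC per a modified published protocol; compounds dissolved in DMSO, fluconazole in water; duplicates in at least two independent experiments. Fungicidal activity checked by spotting MIC-plate cultures onto YPD agar, read after 24 h at 30° C.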
In general terms: Broth dilution looks for growth in wells or tubes with falling amounts of substance.

For data set [1], the target named is Hsp90 Nuclear Binding Domain (NBD) (Candida albicans (strain SC5314 / ATCC MYA-2876) (Yeast), UniProt P46598). The data set can be described thus: Surface Plasmon Resonance (SPR) binding, C. albicans Hsp90 NBD. To be noted: biotinylated Hsp90 NBD on streptavidin chip, 25° C., 1:1 binding model. The gist of the method: (§1)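 Biacore S200 at 25° C; AviTag-biotinylated recombinant Hsp90 NBD captured on streptavidin chip at 2000-2500 RU. Compound dilution series run in HBS-P pH 7.4 with 2% DMSO at 40 μL/min, 60 s association and 600 s dissociation. Sensorgrams fitted to a 1:1 binding model.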
Sequence of Hsp90 Nuclear Binding Domain (NBD) (Candida albicans (strain SC5314 / ATCC MYA-2876) (Yeast), UniProt P46598) (P46598 1-218 limits assumed): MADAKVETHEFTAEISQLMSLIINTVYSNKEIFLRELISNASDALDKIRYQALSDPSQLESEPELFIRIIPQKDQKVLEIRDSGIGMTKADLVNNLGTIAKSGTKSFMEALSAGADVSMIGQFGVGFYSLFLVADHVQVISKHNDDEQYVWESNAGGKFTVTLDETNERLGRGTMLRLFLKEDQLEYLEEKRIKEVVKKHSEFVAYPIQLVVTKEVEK

The target of data set [2] is Hsp90 Nuclear Binding Domain (NBD) (Aspergillus fumigatus, UniProt P40292). The data set can be described thus: Surface Plasmon Resonance (SPR) binding, A. fumigatus Hsp90 NBD. To be noted: biotinylated Hsp90 NBD on streptavidin chip, 25° C., 1:1 binding model; NB undefined. Put shortly: as §1
Sequence of Hsp90 Nuclear Binding Domain (NBD) (Aspergillus fumigatus, UniProt P40292) (P40292 whole entry, looked up, the tested form may be a part): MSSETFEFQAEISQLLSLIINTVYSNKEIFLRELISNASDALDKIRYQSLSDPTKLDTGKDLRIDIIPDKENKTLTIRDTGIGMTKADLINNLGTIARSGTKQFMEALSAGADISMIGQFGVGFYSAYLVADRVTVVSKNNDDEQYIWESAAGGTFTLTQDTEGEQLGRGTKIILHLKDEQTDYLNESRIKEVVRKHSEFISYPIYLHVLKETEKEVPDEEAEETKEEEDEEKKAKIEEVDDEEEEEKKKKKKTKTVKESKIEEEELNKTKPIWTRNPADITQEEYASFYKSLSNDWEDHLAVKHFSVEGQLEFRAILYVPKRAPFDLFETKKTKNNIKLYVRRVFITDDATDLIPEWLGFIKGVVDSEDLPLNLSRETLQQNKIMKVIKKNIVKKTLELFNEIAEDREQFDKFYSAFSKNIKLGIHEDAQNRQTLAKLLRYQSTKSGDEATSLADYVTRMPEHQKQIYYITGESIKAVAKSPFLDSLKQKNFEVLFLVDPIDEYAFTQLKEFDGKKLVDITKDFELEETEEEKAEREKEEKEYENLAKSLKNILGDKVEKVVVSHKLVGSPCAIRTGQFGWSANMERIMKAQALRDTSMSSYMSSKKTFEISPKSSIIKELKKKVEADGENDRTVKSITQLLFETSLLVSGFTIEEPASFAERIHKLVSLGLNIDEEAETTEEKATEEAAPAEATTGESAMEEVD
The next data set concerns HepG2 cells. The experiment in a line: Mammalian cell toxicity (Cell Titer-Glo). The class given is cell-based. As to the method: Mammalian Cell Toxicity. HepG2 cells were seeded overnight at 500 cells/well in 384-well plate, then incubated with compounds (10-point concentration titration) for 48 h. Cell Titer-Glo® reagent ([…]) was added to each well and after 10-minute incubation at room temperature the luminescent signal was measured using an Envision plate reader (Perkin Elmer).

Converted amounts (≈) assume the structure as drawn.

What is called MIC50 is an inhibitory concentration at the 50% level, which refers to growth in some studies and to a panel of isolates in others. A higher MIC50 goes with weaker potency. Broadly, the Kd is the concentration at which binding is half-saturated. A low value points to higher affinity. In the case of `Nc1nc2sc(CNC3CCN(CC[C@@](O)(Cn4cncn4)c4ccc(F)cc4F)CC3)cc2n(-c2ccc3c(c2)N(c2ccccc2)CCO3)c1=O` [Compound I-133, (S)-3-amino-6-(((1-(3-(2,4-difluorophenyl)-3-hydroxy-4-(1H-1,2,4-triazol-1-yl)butyl)piperidin-4-yl)amino)methyl)-1-(4-phenyl-3,4-dihydro-2H-benzo[b][1,4]oxazin-6-yl)thieno[2,3-b]pyrazin-2(1H)-one], the MIC50 against CaCl2 (Table 4) and with CaCl2 (Table 6) was 2.13 µM (≈ 1.58 µg/mL) in each case. In addition, the Kd was determined as 300 nM in data set [1] and 620 nM in data set [2]. Also, the “HepG2 MIC50” value with HepG2 cells (Table 6, 48 h incubation) was determined as 16.8 µM.
Take `Nc1nc2sc(CN3CCC(NCC(O)(Cn4cncn4)c4ccc(F)cc4F)CC3)cc2n(-c2ccc3c(c2)N(c2ccccc2)CCO3)c1=O` (centres unmarked) [Compound I-134, 3-amino-6-((4-((2-(2,4-difluorophenyl)-2-hydroxy-3-(1H-1,2,4-triazol-1-yl)propyl)amino)piperidin-1-yl)methyl)-1-(4-phenyl-3,4-dihydro-2H-benzo[b][1,4]oxazin-6-yl)thieno[2,3-b]pyrazin-2(1H)-one]: the MIC50 with CaCl2 (Table 4) and with CaCl2 (Table 6) was 3.13 µM (≈ 2.27 µg/mL) each time. For the same compound, the Kd in data set [1] amounted to 665 nM; in data set [2], 1050 nM. For the same compound, in the data set with HepG2 cells (Table 6, 48 h incubation), the “HepG2 MIC50” value worked out at 15 µM.
With `Nc1nc2sc(CNC3CCN(CC(=O)OCCC(O)(Cn4cncn4)c4ccc(F)cc4F)CC3)cc2n(-c2ccc3c(c2)N(c2ccccc2)CCO3)c1=O` (centres unmarked) [Compound I-136, 3-(2,4-difluorophenyl)-3-hydroxy-4-(1H-1,2,4-triazol-1-yl)butyl 2-(4-(((3-amino-2-oxo-1-(4-phenyl-3,4-dihydro-2H-benzo[b][1,4]oxazin-6-yl)-1,2-dihydrothieno[2,3-b]pyrazin-6-yl)methyl)amino)piperidin-1-yl)acetate], the MIC50 with CaCl2 (Table 4) and in the data set on CaCl2 (Table 6) was 6.25 µM (≈ 4.99 µg/mL) in each case. For the same compound, the equilibrium dissociation constant (Kd) in data set [1] came out at 271 nM; in data set [2] it was 529 nM. Also, the “HepG2 MIC50” value with HepG2 cells (Table 6, 48 h incubation) came out at 19.4 µM.
In the case of `CC1CC(NCc2cc3c(nc(N)c(=O)n3-c3ccc4c(c3)N(c3ccccc3)CCO4)s2)CCN1CC(O)(Cn1cncn1)c1ccc(F)cc1F` (centres unmarked) [Compound I-138, 3-amino-6-(((1-(2-(2,4-difluorophenyl)-2-hydroxy-3-(1H-1,2,4-triazol-1-yl)propyl)-2-methylpiperidin-4-yl)amino)methyl)-1-(4-phenyl-3,4-dihydro-2H-benzo[b][1,4]oxazin-6-yl)thieno[2,3-b]pyrazin-2(1H)-one], the MIC50 against CaCl2 (Table 4) and against CaCl2 (Table 6) was 2.3 µM (≈ 1.7 µg/mL) each time. Further, the Kd in data set [1] worked out at 445 nM; in data set [2], 674 nM. Also, the “HepG2 MIC50” value in the data set on HepG2 cells (Table 6, 48 h incubation) amounted to 7.9 µM.
For the compound `Nc1nc2sc(CNC3CCN(CC(O)(Cn4ccnc4)c4ccc(F)cc4F)CC3)cc2n(-c2ccc3c(c2)N(c2ccccc2)CCO3)c1=O` (centres unmarked) [Compound I-139, 3-amino-6-(((1-(2-(2,4-difluorophenyl)-2-hydroxy-3-(1H-imidazol-1-yl)propyl)piperidin-4-yl)amino)methyl)-1-(4-phenyl-3,4-dihydro-2H-benzo[b][1,4]oxazin-6-yl)thieno[2,3-b]pyrazin-2(1H)-one], the MIC50 in the data set with CaCl2 (Table 4) and in the data set with CaCl2 (Table 6) was 1.2 µM (≈ 0.87 µg/mL) each time. For the same compound, the values for the Kd in data set [1] and in data set [2] were 151 nM and 246 nM, respectively. For the same compound, the “HepG2 MIC50” value is 3.9 µM in the data set on HepG2 cells (Table 5, 48 h incubation) and 3.9 µM in the data set with HepG2 cells (Table 6, 48 h incubation).
